From US8859549B2, “Potassium channel modulators” (AbbVie, Inc., priority 2011, dated 2014)

Target: T1, KCNQ 2/3 channels (Homo sapiens, UniProt O43525+O43526)
T1 construct: expressed in transfected cells; host or cells: HEK293
Assay: KCNQ 2/3 channel activation, thallium flux FLIPR assay (BTC-AM dye)
Assay type: cell-based
Conditions: for Emax: HEK293, maximum response relative to the response of 10 μM retigabine (set at 100%), read-out: % MAX; for EC50: HEK293 cells stably expressing human KCNQ2 and KCNQ3 subunits, thallium-induced fluorescence, 4 min compound incubation
Description: The following example describes the assay that can be used to identify compounds that activate KCNQ 2/3 channels.
HEK293 cells stably expressing human KCNQ2 and KCNQ3 subunits were seeded in 96-well, black-walled, clear-bottomed, poly-D-lysine coated plates (BD Biosciences, Bedford, Mass.) at a density of 1×10^5 cells per well 24 hours before the assay. On the assay day, BTC-AM dye (Invitrogen, Carlsbad, Calif.) was loaded into the cells by replacing the cell culture medium with 55 μL/well of 3 μg/mL dye in DPBS. Dye loading was allowed to proceed for 2 hours at room temperature and then cells were washed twice with 50 μL/well of assay buffer (in mM: 10 HEPES pH 7.3, 5 glucose, 140 Na-gluconate, 2.5 K-gluconate, 3.6 Ca-gluconate, 2 MgSO4, 0.1 Ouabain) to remove unloaded dye. Cells were incubated in 50 μL of assay buffer before loading onto a FLIPR system (Molecular Devices, Sunnyvale, Calif.). Various concentrations of compounds to be assayed were added to the cells in 50 μL of assay buffer and incubated for 4 minutes. The fluorescence signal was initiated by adding 100 μL of assay buffer containing 6 mM TlNO3 and 10 mM K2SO4. Fluors were excited using the 488-nm line of an argon laser and emission was filtered using a 540±30 nm bandpass filter. Fluorescent signals were recorded for 3 minutes. Sums of the responses over basal responses were plotted versus concentrations of test compounds to obtain an EC50 value. The maximum response for each test compound was determined relative to the response produced by 10 μM retigabine. The maximum response of retigabine at 10 μM was set at 100%.

Emax (HEK293 KCNQ2/KCNQ3 cells)	EC50	% MAX (maximum response relative to the response of 10 μM retigabine (set at 100%), HEK293 KCNQ2/KCNQ3 cells)	SMILES
122%	31.8 nM	–	O=C(Cc1cc(F)cc(F)c1)Nn1nc(Oc2ccccc2)c2ccccc2c1=O [Example 38, 2-(3,5-difluorophenyl)-N-(1-oxo-4-phenoxyphthalazin-2(1H)-yl)acetamide]
21.8%	–	–	COC(=O)c1cc(-c2nn(NC(=O)CC3CC4CCC3C4)c(=O)c3ccccc23)ccn1 (racemic) [Example 74, (±)-methyl 4-(3-{[(exo)-bicyclo[2.2.1]hept-2-ylacetyl]amino}-4-oxo-3,4-dihydrophthalazin-1-yl)pyridine-2-carboxylate]
53.2%	1420 nM	–	CCOC(=O)C(C)c1nn(NC(=O)Cc2ccc(Cl)cc2)c(=O)c2ccccc12 (centres unmarked) [Example 109, ethyl 2-(3-{[(4-chlorophenyl)acetyl]amino}-4-oxo-3,4-dihydrophthalazin-1-yl)propanoate]
11.7%	–	–	O=C(Cc1ccc(Cl)cc1)Nn1nc(Cc2ccc(Cl)[n+]([O-])c2)c2ccccc2c1=O [Example 104, N-{4-[(6-chloro-1-oxidopyridin-3-yl)methyl]-1-oxophthalazin-2(1H)-yl}-2-(4-chlorophenyl)acetamide]
71.7%	12900 nM	–	O=C(Cc1ccc(F)cc1)Nn1nc(N2CCOCC2)c2ccccc2c1=O [Example 150, 2-(4-fluorophenyl)-N-[4-(morpholin-4-yl)-1-oxophthalazin-2(1H)-yl]acetamide]
34.2%	–	–	COc1ccc(CC(=O)Nn2nc(N3CCOCC3)c3ccccc3c2=O)c(OC)c1 [Example 170, 2-(2,4-dimethoxyphenyl)-N-[4-(morpholin-4-yl)-1-oxophthalazin-2(1H)-yl]acetamide]
2.26%	–	–	CC(C(=O)O)c1nn(NC(=O)Cc2ccc(Cl)cc2)c(=O)c2ccccc12 (centres unmarked) [Example 110, 2-(3-{[(4-chlorophenyl)acetyl]amino}-4-oxo-3,4-dihydrophthalazin-1-yl)propanoic acid]
171%	275 nM	–	CCOC(=O)c1nn(NC(=O)CC2CC3CCC2C3)c(=O)c2ccccc12 (racemic) [Example 51, (±)-ethyl 3-{[(exo)-bicyclo[2.2.1]hept-2-ylacetyl]amino}-4-oxo-3,4-dihydrophthalazine-1-carboxylate]
11.4%	–	–	O=C(CC1CC2CCC1C2)Nn1nc(Nc2cccc(Cl)c2)c2ccccc2c1=O (racemic) [Example 35, (±)-2-[(exo)-bicyclo[2.2.1]hept-2-yl]-N-{4-[(3-chlorophenyl)amino]-1-oxophthalazin-2(1H)-yl}acetamide]
112%	3490 nM	–	O=C(Cc1ccc(Cl)cc1)Nn1nc(N2CCN(Cc3ccccc3)CC2)c2ccccc2c1=O [Example 101, N-[4-(4-benzylpiperazin-1-yl)-1-oxophthalazin-2(1H)-yl]-2-(4-chlorophenyl)acetamide]
116%	38.1 nM	–	O=C(Cc1cc(F)cc(F)c1)Nn1nc(Sc2ccccc2)c2ccccc2c1=O [Example 57, 2-(3,5-difluorophenyl)-N-[1-oxo-4-(phenylsulfanyl)phthalazin-2(1H)-yl]acetamide]
75.2%	155 nM	–	N#Cc1ccc(S(=O)(=O)c2nn(NC(=O)Cc3ccc(F)cc3)c(=O)c3ccccc23)cc1 [Example 224, N-{4-[(4-cyanophenyl)sulfonyl]-1-oxophthalazin-2(1H)-yl}-2-(4-fluorophenyl)acetamide]
92.6%	5180 nM	–	CS(=O)(=O)c1ccc(CC(=O)Nn2nc(Sc3ccccc3)c3ccccc3c2=O)cc1 [Example 181, 2-[4-(methylsulfonyl)phenyl]-N-[1-oxo-4-(phenylsulfanyl)phthalazin-2(1H)-yl]acetamide]
–	90.9 nM	144%	CC1CN(c2nn(NC(=O)CC3CC4CCC3C4)c(=O)c3ccccc23)CC(C)O1 (racemic) [Example 64, (±)-2-[(exo)-bicyclo[2.2.1]hept-2-yl]-N-[4-(2,6-dimethylmorpholin-4-yl)-1-oxophthalazin-2(1H)-yl]acetamide]
